The text below walks through data of US20220304955A1 (Nacuity Pharmaceuticals, Inc., priority 2021, published 2022).

Series [1] deals with N27 cells. The following applies: for solvent concentration over which cell viability is reduced: rat, 24 h. The procedure: Viability of cells treated with water, dimethyl sulfoxide (DMSO) or NMP (0.3-20% v/v) for 24 hours. Data are means±SEM, n=3.
Materials and Methods. […] N27 cells, derived from E12 rat mesencephalic tissue (Merck, Australia), were cultured in RPMI 1640 media (ThermoFisher Scientific) supplemented with 10% fetal calf serum (Bovogen, Australia) and penicillin and streptomycin (ThermoFisher Scientific, Australia). Cells were cultured at 37° C. with 5% CO2. Cellular ferroptosis assays were used to evaluate anti-ferroptotic activity of test articles (Southon et al., 2019). Liproxstatin-1 (lip1) was used as an anti-ferroptotic control. […] Cell viability was measured by 3-[4,5-dimethylthiazol-2-yl]-2,5-diphenyltetrazolium bromide (MTT) assay, absorbance measured at 570 nm using a PowerWave XS microplate spectrophotometer (BioTek Instruments, Winooski, USA), and expressed as a percentage of control cells (Southon et al., 2019).
The toxicity profile of solvents NMP, DMSO and water were evaluated in N27 cells (FIG. 2).

Series [2] relates to N27 cells. Briefly: Cellular ferroptosis assay, cell viability by MTT. Conditions: for preventing ferroptosis, NAC compared with NACA: 50 μM in media or PBS, erastin 0.1-8 μM, RSL3 3-400 nM or glutamate 3-400 mM, 24 hr; for anti-ferroptotic activity on pretreatment prior to ferroptosis induction: 50 or 500 μM in PBS for 24 hours, then erastin, RSL3 or glutamate for additional 24 hours; for prevention of ferroptosis induced by erastin, RSL3 and glutamate (cell viability): erastin 2 μM, RSL3 100 nM or glutamate 100 mM, 24 hours, added at same time, liproxstatin-1 4-250 nM, NAC, NACA (in water), diNACA (in NMP) 8-500 μM; for anti-ferroptotic activity on post-treatment: erastin, RSL3 or glutamate for 5 hours, then 50 or 500 μM in PBS for additional 19 hours. In kind it is cell-based, rat. The procedure: Materials and Methods. […] Cells were cultured at 37° C. with 5% CO2.

In series [3] the test system is C. elegans. Conditions: Drug Age Database listing; cited from earlier work.
In the next series the test system is Caenorhabditis elegans. The experiment in a line: Caenorhabditis elegans Lifespan assay. It counts as in vivo. The following applies: for Median survival: from late L4 larval/young adult stage, 25 °C, strain TJ1060. The procedure:
NAC and NACA were dissolved in sterile water then added to the molten NGM at 55° C. Media containing equivalent vehicle alone (1% v/v DMSO) was used for comparison. 1% v/v DMSO was also added to NAC and NACA plates for consistency, as DMSO itself may affect lifespan. Standard overnight culture of the Escherichia coli strain OP50 was used as the food source. Lifespan data were collected at 25 (±1) ° C. using the temperature sensitive-sterile strain TJ1060 [spe-9(hc88); rrf-3(b26)] as a proxy for wildtype. A developmentally synchronous population was obtained by transferring egg-laying adults to fresh plates at 16° C. for 4 hours. The adults were removed and the plates with eggs then transferred to 25° C. to ensure sterility. After 48 hours at 25° C., when worms were at the late L4 larval/young adult stage, 25-35 nematodes were transferred to fresh plates containing either vehicle control (1% v/v DMSO), 1 mM NAC, 10 mM NAC, 1 mM NACA, 10 mM NACA, 1 mM diNACA, and 10 mM diNACA. All plates were coded to allowing blinding of the experimenter to the treatment regime during scoring. Nematodes were scored for survival at 1 to 2-day intervals and transferred to freshly prepared plates as needed (every 2-4 days). Worms lost not due to death were recorded as censored.
Results. Data was analyzed using GraphPad Prism 9, with survival curves compared using a long-rank (Mantel-Cox) test. P values are given for pair-wise comparisons to the vehicle control population.

The test system of series [4] is C. elegans. Briefly: Diethyl maleate (DEM) assay, survival of C. elegans. In kind it is in vivo, Caenorhabditis elegans. The following applies: for % alive: then 10 mM DEM, scored at 24 hours. The procedure:
Materials and Methods. Effects of NAC, NACA and diNACA on diethyl maleate (DEM; Sigma-Aldrich)-induced toxicity in C. elegans was evaluated. (10 mM DEM alone conjugates GSH causing 50% depletion of GSH and 50% lethality after 24 hour exposure (Jenkins et al., 2020)). DEM was added to neat DMSO and added to molten NGM at 55° C. to a final concentration of 10 mM DEM and 0.5% v/v DMSO. Plates were seeded with E. coli strain OP50. Data were collected at 25 (±1) ° C. using the temperature sensitive-sterile strain TJ1060. A synchronous population was obtained by transferring egg-laying adults to fresh plates at 16° C. for 2-3 hours. The adults were removed and the plates with eggs then transferred to 25° C. to ensure sterility. After 48 hours at 25° C., when worms were at the late L4/young adult stage, 70 nematodes were transferred to fresh plates containing either vehicle control, 1 mM NAC, 10 mM NAC, 1 mM NACA, 10 mM NACA, 1 mM diNACA, 10 mM diNACA (all with 1.0% v/v DMSO). Worms were aged at 25° C. for a further 4 days and then transferred to DEM plates, 35-45 per plate, two plates per treatment. Survival, determined by touch-provoked movement, was scored at 24 hours after exposure to DEM.

For series [5] the following is noted: humans, oral dose of 600 mg; cited from earlier work.
For series [6], the system named is C. elegans. Conditions: 10 mM DEM alone, 24 hour exposure; cited from earlier work.

Structures can show the parent of a compound that is named as a salt. Positions of bridges follow the written chain, without caps; N, C: chain ends. Non-standard residues stand in square brackets, D forms with d. Residues, ends and D or L forms follow the SMILES beside them. *: point of attachment. Ileψ(thiazoline)Cys = CC[C@H](C)[C@H](N)C1=N[C@H](C(=O)*)CS1; dOrn = NCCC[C@@H](N)C(=O)O

Turning to `O` [Water, water], the “effect of solvent on cell viability” value in the series with N27 cells [1] is reported as “did not reduce cell viability”.

As for `CC(=O)N[C@@H](CS)C(=O)O` [NAC, N-acetylcysteine, reference compound], in the series with N27 cells [2], the “preventing ferroptosis, NAC compared with NACA” value is “similarly effective at preventing ferroptosis”; the “anti-ferroptotic activity on pretreatment prior to ferroptosis induction” value is given as “did not differentiate anti-ferroptotic activity”; the “prevention of ferroptosis induced by erastin, RSL3 and glutamate (cell viability)” value (“prevention of ferroptosis induced” below) is given as “efficacy in the micromolar range”; the “anti-ferroptotic activity on post-treatment” value is reported as “did not differentiate anti-ferroptotic activity”. The “life extension of C. elegans” value in the series with C. elegans [3] is recorded as 64%. The “Median survival” value in the series on Caenorhabditis elegans (1 mM in NGM) was 10 days. Further, the increase in lifespan result in the series on Caenorhabditis elegans (10 mM) is listed as “minor increase”. The “Median survival” value in the series on Caenorhabditis elegans (10 mM in NGM) stood at 10 days. For the same compound, the “% alive” value in the series with C. elegans [4] (1 mM pre-treatment 4 days) was found to be 80%. Also, the “rescue from DEM-induced toxicity” value with C. elegans [4] (10 mM) is “rescue”. In the series on C. elegans [4] (10 mM pre-treatment 4 days), the “% alive” value is given as 89%. For the same compound, in series [5], the plasma half-life is 2.5 h and the “time after administration at which no NAC is detectable” value is 10 to 12 h.

Turning to `CC(=O)Nc1ccc(O)cc1` [acetaminophen], the “life extension of C. elegans” value in the series with C. elegans [3] is on record as 66%.

Regarding `CN1CCCC1=O` [NMP, N-methyl pyrrolidone], the “solvent concentration over which cell viability is reduced” value with N27 cells [1] was “over 0.3%”.

For the compound `Cc1ccc2c(c1)sc(-c1ccc(N(C)C)cc1)[n+]2C.[Cl-]` [thioflavin T], the “life extension of C. elegans” value in the series with C. elegans [3] is recorded as 78%.

With `Clc1cccc(CN=C2Nc3ccccc3NC23CCNCC3)c1` [Lip1, Liproxstatin-1, reference compound], the “prevention of ferroptosis induced” value in the series with N27 cells [2] was “nanomolar efficacy”.

For `CC[C@H](C)[C@H](N)C1=N[C@H](C(=O)N[C@@H](CC(C)C)C(=O)N[C@H](CCC(=O)O)C(=O)N[C@H](C(=O)N[C@H]2CCCCNC(=O)[C@H](CC(N)=O)NC(=O)[C@@H](CC(=O)O)NC(=O)[C@H](Cc3cnc[nH]3)NC(=O)[C@@H](Cc3ccccc3)NC(=O)[C@H]([C@@H](C)CC)NC(=O)[C@@H](CCCN)NC2=O)[C@@H](C)CC)CS1` [bacitracin] ({Ileψ(thiazoline)Cys}-L[dE]IK[dOrn]I[dF]H[dD]N; lactam 4-C), the “life extension of C. elegans” value with C. elegans [3] was 74%.

For the compound `CC(=O)N[C@@H](CS)C(N)=O`, the “preventing ferroptosis, NAC compared with NACA” value in the series on N27 cells [2] is given as “similarly effective at preventing ferroptosis”. The “anti-ferroptotic activity on pretreatment prior to ferroptosis induction” value with N27 cells [2] is “did not differentiate anti-ferroptotic activity”. Further, the “prevention of ferroptosis induced” value in the series on N27 cells [2] was “efficacy in the micromolar range”. In the series on N27 cells [2], the “anti-ferroptotic activity on post-treatment” value is “did not differentiate anti-ferroptotic activity”. Also, the increase in lifespan entry is “minor increase” in the series with Caenorhabditis elegans (1 mM) and “marked increase in lifespan” in the series with Caenorhabditis elegans (10 mM). Further, the “Median survival” value with Caenorhabditis elegans (1 mM in NGM) was 10 days; with Caenorhabditis elegans (10 mM in NGM), 16 days. Moreover, the “rescue from DEM-induced toxicity” value in the series with C. elegans [4] (1 mM) and in the series with C. elegans [4] (10 mM) was “rescue” in each case. Further, the “% alive” value with C. elegans [4] (1 mM pre-treatment 4 days) was found to be 91%; in the series with C. elegans [4] (10 mM pre-treatment 4 days), 98%.

In the case of `C[S+](C)[O-]` [DMSO, dimethyl sulfoxide], the “solvent concentration over which cell viability is reduced” value with N27 cells [1] is “over 1.3%”.

`CCOC(=O)/C=C\C(=O)OCC` [DEM, diethyl maleate]: in the series on C. elegans [6], the “depletion of GSH” value is 50% and the lethality was 50%.
